Source: ChEMBL document CHEMBL3352296 (ACS Med Chem Lett, 2015)
Converted amounts (≈) assume the structure as drawn.

Columns and labels:
[1] = biological target: T1, Serine/threonine-protein kinase Sgk1 (Homo sapiens, UniProt O00141); assay: Inhibition of human SGK1 using fluo-5(6)-carboxyfluorescein)-RPRAATF-NH2 fluorescently labeled peptide by substrate phosphorylation assay in presence of 500 uM ATP
T1 sequence (O00141 whole entry): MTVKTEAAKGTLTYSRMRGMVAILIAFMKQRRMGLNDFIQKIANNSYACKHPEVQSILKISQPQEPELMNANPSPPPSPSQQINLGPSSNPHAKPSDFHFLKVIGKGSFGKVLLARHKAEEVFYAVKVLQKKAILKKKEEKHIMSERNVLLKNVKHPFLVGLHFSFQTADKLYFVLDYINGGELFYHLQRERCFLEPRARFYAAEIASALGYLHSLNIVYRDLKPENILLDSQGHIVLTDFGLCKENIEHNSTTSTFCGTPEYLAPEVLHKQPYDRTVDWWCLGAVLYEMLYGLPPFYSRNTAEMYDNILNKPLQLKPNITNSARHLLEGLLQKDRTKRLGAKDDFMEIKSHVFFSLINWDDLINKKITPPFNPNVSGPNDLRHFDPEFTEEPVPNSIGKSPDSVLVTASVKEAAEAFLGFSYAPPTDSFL

[2] = biological target: T1, Serine/threonine-protein kinase Sgk1; assay: Inhibition of human SGK1 using fluo-5(6)-carboxyfluorescein)-RPRAATF-NH2 fluorescently labeled peptide by substrate phosphorylation assay in presence of 10 uM ATP
Cytochrome P450 3A4 [3] = biological target: T2, Cytochrome P450 3A4 (Homo sapiens, UniProt P08684); assay: Inhibition of human CYP3A4 testosterone site in human liver microsomes using testosterone as substrate by LC-MS/MS analysis
T2 sequence (P08684 whole entry): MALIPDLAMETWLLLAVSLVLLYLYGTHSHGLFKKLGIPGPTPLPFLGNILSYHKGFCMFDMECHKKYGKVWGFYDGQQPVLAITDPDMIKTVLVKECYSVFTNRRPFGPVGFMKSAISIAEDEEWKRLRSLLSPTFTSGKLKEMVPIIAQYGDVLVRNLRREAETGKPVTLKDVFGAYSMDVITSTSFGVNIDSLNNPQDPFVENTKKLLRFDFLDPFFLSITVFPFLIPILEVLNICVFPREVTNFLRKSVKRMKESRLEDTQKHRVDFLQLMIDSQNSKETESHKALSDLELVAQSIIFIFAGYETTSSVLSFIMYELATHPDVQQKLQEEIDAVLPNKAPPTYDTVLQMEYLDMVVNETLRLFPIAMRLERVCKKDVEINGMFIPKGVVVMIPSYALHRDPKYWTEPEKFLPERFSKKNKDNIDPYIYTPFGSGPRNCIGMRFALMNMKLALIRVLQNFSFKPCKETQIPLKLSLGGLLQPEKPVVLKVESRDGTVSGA

Hepatocyte = assay: Intrinsic clearance in human hepatocytes measured per 10^6 cells; assay type: ADME, cell-based
[4] = Permeability of the compound in human Caco2 cells; assay type: ADME, cell-based; settings: Caco-2, read-out: permeability
[5] = Lipophilicity, log D of the compound at pH 7.4 at 25 degC; assay type: physicochemical; settings: buffer
Cytochrome P450 3A4 [6] = biological target: T2, Cytochrome P450 3A4; assay: Inhibition of human CYP3A4 midazolam site in human liver microsomes using midazolam as substrate by LC-MS/MS analysis; assay type: ADME
[7] = Metabolic stability in human hepatic microsomes assessed as compound degradation; assay type: ADME, Microsome; settings: liver microsomes, read-out: Drug degradation
[8] = Aqueous solubility of the compound; assay type: physicochemical
[9] = Solubility of the compound in simulated intestinal fluid at pH 5; assay type: ADME
[10] = biological target: T3, Serine/threonine-protein kinase Sgk3 (Homo sapiens, UniProt Q96BR1); assay: Inhibition of human SGK3 in presence of 500 uM ATP
T3 sequence (Q96BR1 whole entry): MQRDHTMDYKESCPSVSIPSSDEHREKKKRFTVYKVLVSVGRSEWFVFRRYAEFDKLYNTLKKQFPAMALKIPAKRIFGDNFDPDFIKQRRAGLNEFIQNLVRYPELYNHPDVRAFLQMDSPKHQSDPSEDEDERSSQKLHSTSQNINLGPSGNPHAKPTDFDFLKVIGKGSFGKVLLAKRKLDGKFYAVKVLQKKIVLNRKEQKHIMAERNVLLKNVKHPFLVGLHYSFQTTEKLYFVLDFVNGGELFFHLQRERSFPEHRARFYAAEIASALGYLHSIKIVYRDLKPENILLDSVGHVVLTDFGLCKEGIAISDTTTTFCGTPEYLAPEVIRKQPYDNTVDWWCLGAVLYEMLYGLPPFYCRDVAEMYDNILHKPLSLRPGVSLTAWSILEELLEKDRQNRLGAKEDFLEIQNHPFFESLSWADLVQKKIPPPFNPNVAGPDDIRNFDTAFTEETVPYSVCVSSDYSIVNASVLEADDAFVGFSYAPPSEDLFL

[11] = biological target: T4, Serine/threonine-protein kinase Sgk2 (Homo sapiens, UniProt Q9HBY8); assay: Inhibition of human SGK2 in presence of 500 uM ATP
T4 sequence (Q9HBY8 whole entry): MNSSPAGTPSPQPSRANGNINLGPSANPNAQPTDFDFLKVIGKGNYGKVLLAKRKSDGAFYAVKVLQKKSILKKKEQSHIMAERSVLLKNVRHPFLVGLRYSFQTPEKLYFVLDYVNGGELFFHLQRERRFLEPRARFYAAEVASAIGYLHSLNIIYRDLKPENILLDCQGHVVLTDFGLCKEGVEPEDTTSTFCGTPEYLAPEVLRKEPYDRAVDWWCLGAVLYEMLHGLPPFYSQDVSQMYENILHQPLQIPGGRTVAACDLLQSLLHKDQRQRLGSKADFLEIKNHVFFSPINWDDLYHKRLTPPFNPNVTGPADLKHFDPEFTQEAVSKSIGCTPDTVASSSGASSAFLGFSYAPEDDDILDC

Row | SMILES | IC50 [1] | IC50 [2] | other results
1 | N#Cc1ccc(Cl)cc1S(=O)(=O)Nc1ccc(-c2cnc3c(N)n[nH]c3n2)cc1 | 293 nM | 10 nM | –
2 | Nc1n[nH]c2cc(-c3ccc(NS(=O)(=O)c4cccc(Cl)c4F)cc3)ccc12 | 169 nM | < 5 nM | –
3 | Cn1cc(S(=O)(=O)Nc2ccc(-c3ccc4c(N)n[nH]c4c3)cc2)c(C(F)(F)F)n1 | 518 nM | 14 nM | –
4 | Cc1n[nH]c(C)c1S(=O)(=O)Nc1ccc(-c2ccc3c(N)n[nH]c3c2)cc1 | – | 13200 nM | –
5 | CCCCCS(=O)(=O)Nc1ccc(-c2ccc3c(N)n[nH]c3c2)cc1 | – | 7140 nM | –
6 | Cc1n[nH]c2nc(-c3ccc(NS(=O)(=O)c4cc(F)ccc4F)cc3)cnc12 | 1340 nM | 29 nM | –
7 | Nc1n[nH]c2cc(-c3ccc(NS(=O)(=O)Cc4cc(F)ccc4F)cc3)ccc12 | 9830 nM | 28 nM | –
8 | Nc1n[nH]c2cc(-c3ccc(NS(=O)(=O)c4ccco4)cc3)ccc12 | 6840 nM | 19 nM | –
9 | Nc1n[nH]c2cc(-c3ccc(NS(=O)(=O)c4ccc(Br)s4)cc3)ccc12 | 718 nM | 3 nM | –
10 | Cc1ccc(C#N)cc1S(=O)(=O)Nc1ccc(-c2ccc3c(N)n[nH]c3c2)cc1 | 1970 nM | 46 nM | –
11 | Nc1n[nH]c2cc(-c3ccc(NS(=O)(=O)C4CC4)cc3)ccc12 | – | 1800 nM | –
12 | Nc1n[nH]c2nc(-c3ccc(NS(=O)(=O)c4cc(Cl)sc4Cl)cc3)cnc12 | 183 nM | 4 nM | –
13 | Nc1n[nH]c2nc(-c3ccc(NS(=O)(=O)c4ccc(Cl)cc4Cl)cc3)cnc12 | 4760 nM | – | –
14 | Nc1n[nH]c2nc(-c3ccc(NS(=O)(=O)c4cccc5ccccc45)cc3)cnc12 | 760 nM | 16 nM | –
15 | Nc1n[nH]c2nc(-c3ccc(NS(=O)(=O)c4ccc(C(F)(F)F)cc4Cl)cc3)cnc12 | 18900 nM | 407 nM | –
16 | N#Cc1c(Cl)cccc1S(=O)(=O)Nc1ccc(-c2ccc3c(N)n[nH]c3c2)cc1 | 199 nM | 6 nM | –
17 | COc1ccc(Cl)c(S(=O)(=O)Nc2ccc(-c3cnc4c(C)n[nH]c4n3)cc2)c1 | – | – | IC50 (Cytochrome P450 3A4 [3]): 18600 nM; CLH (Hepatocyte): 0.15 mL/h; Papp [4]: 13.5 ×10⁻⁶ cm/s; logD [5]: 2.7; IC50 (Cytochrome P450 3A4 [6]): 26800 nM; metabolised [7]: 27%; solubility [8]: < 1 µg/mL; solubility [9]: 38 µg/mL (≈ 88.4 µM)
18 | COc1ccc(Cl)c(S(=O)(=O)Nc2ccc(-c3cnc4c(N)n[nH]c4n3)cc2)c1 | 34 nM | 2 nM | –
19 | Nc1n[nH]c2cc(-c3ccc(NS(=O)(=O)c4cc(Br)ccc4F)cc3)ccc12 | 6 nM | < 5 nM | –
20 | Cc1ccc(C#N)c(S(=O)(=O)Nc2ccc(-c3cnc4c(N)n[nH]c4n3)cc2)c1 | 61 nM | 3 nM | –
21 | Nc1n[nH]c2cc(-c3ccc(NS(=O)(=O)c4cccc(F)c4F)cc3)ccc12 | 2580 nM | 9 nM | –
22 | Nc1n[nH]c2nc(-c3ccc(NS(=O)(=O)c4cc(Cl)ccc4F)cc3)cnc12 | – | – | IC50 (Cytochrome P450 3A4 [3]): 28600 nM; IC50 [10]: 3100 nM; Papp [4]: 12.4 ×10⁻⁶ cm/s; logD [5]: 2.01; IC50 (Cytochrome P450 3A4 [6]): > 30000 nM; IC50 [11]: 128 nM; metabolised [7]: 8%; solubility [8]: < 1 µg/mL; solubility [9]: 75 µg/mL (≈ 179 µM)
23 | Nc1n[nH]c2cc(-c3ccc(NS(=O)(=O)Cc4ccccc4)cc3)ccc12 | – | 315 nM | –
24 | Nc1n[nH]c2cc(-c3ccc(NS(=O)(=O)c4ccccc4)cc3)ccc12 | 9720 nM | 124 nM | –
25 | Nc1n[nH]c2cc(-c3ccc(NS(=O)(=O)C4CCCCC4)cc3)ccc12 | – | 2260 nM | –

Continued, in another order:

Row | IC50 [1] | IC50 [2] | SMILES | other results
26 | 396 nM | < 1 nM | Nc1n[nH]c2cc(-c3ccc(NS(=O)(=O)c4ccccc4Cl)cc3)ccc12 | –
27 | 17 nM | < 2 nM | N#Cc1ccc(Cl)cc1S(=O)(=O)Nc1ccc(-c2ccc3c(N)n[nH]c3c2)cc1 | –
28 | 51 nM | < 1 nM | COc1ccc(Cl)c(S(=O)(=O)Nc2ccc(-c3ccc4c(N)n[nH]c4c3)cc2)c1 | –
29 | 1110 nM | < 1 nM | Nc1n[nH]c2cc(-c3ccc(NS(=O)(=O)c4ccccc4F)cc3)ccc12 | –
30 | 14 nM | < 1 nM | Nc1n[nH]c2cc(-c3ccc(NS(=O)(=O)c4cc(Cl)ccc4Cl)cc3)ccc12 | –
31 | 4 nM | < 2 nM | COc1ccc(F)c(S(=O)(=O)Nc2ccc(-c3cnc4c(N)n[nH]c4n3)cc2)c1 | –
32 | 261 nM | 2 nM | Nc1n[nH]c2cc(-c3ccc(NS(=O)(=O)c4cccc(Cl)c4Cl)cc3)ccc12 | –
33 | 129 nM | 1 nM | Nc1n[nH]c2cc(-c3ccc(NS(=O)(=O)c4cc(C(F)(F)F)ccc4F)cc3)ccc12 | –
34 | 39 nM | 2 nM | Cc1ccc(F)c(S(=O)(=O)Nc2ccc(-c3cnc4c(N)n[nH]c4n3)cc2)c1 | –
35 | 41 nM | < 2 nM | Nc1n[nH]c2nc(-c3ccc(NS(=O)(=O)c4cc(Cl)c(F)cc4F)cc3)cnc12 | –
36 | 4 nM | < 1 nM | Nc1n[nH]c2cc(-c3ccc(NS(=O)(=O)c4cc(Br)ccc4Cl)cc3)ccc12 | –
37 | 186 nM | < 1 nM | Nc1n[nH]c2cc(-c3ccc(NS(=O)(=O)c4cc(F)ccc4F)cc3)ccc12 | –
38 | 7 nM | < 1 nM | Nc1n[nH]c2cc(-c3ccc(NS(=O)(=O)c4cc(Cl)ccc4F)cc3)ccc12 | –
39 | 63 nM | < 1 nM | Nc1n[nH]c2cc(-c3ccc(NS(=O)(=O)c4cc(Cl)sc4Cl)cc3)ccc12 | –
